For orientation: IC50 means the concentration at which inhibition is half-maximal. Low values mean greater potency, high ones weaker potency.

Results on 1 compound are retold here after article PMC2952445 (The journal of pain : official journal of the American Pain …, 2009).

This assay addresses mu opioid peptide (MOP) receptor (mouse brain) (Mus musculus, UniProt P42866).

SMILES strings stand for the structures.

Sequence of mu opioid peptide (MOP) receptor (mouse brain) (P42866 whole entry): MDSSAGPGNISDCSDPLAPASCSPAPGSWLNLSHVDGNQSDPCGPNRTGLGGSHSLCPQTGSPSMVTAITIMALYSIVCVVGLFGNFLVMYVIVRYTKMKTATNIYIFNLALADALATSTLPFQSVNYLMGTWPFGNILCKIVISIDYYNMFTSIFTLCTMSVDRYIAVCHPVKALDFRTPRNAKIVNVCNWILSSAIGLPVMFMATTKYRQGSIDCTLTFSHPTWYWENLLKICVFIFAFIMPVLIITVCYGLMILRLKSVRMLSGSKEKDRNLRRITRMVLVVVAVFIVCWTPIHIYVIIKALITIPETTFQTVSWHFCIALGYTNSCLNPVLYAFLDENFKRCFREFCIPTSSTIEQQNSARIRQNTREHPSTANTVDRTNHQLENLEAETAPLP

As for `CCC(=O)C(CC(C)N(C)C)(c1ccccc1)c1ccccc1` (stereo not shown) [methadone], the midpoint of inhibition, the IC50, lay at 0.0117 ± 0.0012 µM.
